Results reported in patent US20220289720A1, “ARYL SULFONAMIDES AS SMALL MOLECULE STAT3 INHIBITORS” (UNIVERSITY OF HAWAII, priority 2019, published 2022).

Legend:
Stat3 = Stat3 (Mus musculus, UniProt P42227); experiment: Stat3 DNA-binding activity in vitro, electrophoretic mobility shift assay (EMSA) on nuclear extracts; format: biochemical; conditions: nuclear extracts containing activated Stat3 pre-incubated with compound 30 min at room temperature, radiolabeled hSIE probe
Protocol: FIGS. 3A-3D. show the effect of aryl sulfonamido compounds described herein on Stat3 DNA-binding activity in vitro. […] Positions of Stat3:DNA complexes in gel are labeled; control lanes (0) represent nuclear extracts pre-treated with 10% DMSO.
Nuclear extract preparation, gel shift assays, and densitometric analysis. […] Except where indicated, nuclear extracts were pre-incubated with compound for 30 min at room temperature prior to incubation with the radiolabeled probe for 30 min at 30° C. before subjecting to EMSA analysis. Where appropriate, bands corresponding to Stat3:DNA complexes were scanned and quantified for each concentration of compound using ImageJ and plotted as percent of control (DMSO) against concentration of compound, from which the IC50 values were derived.
The inhibitory activities of the representative analogs against in vitro Stat3 DNA-binding activity, as measured by electrophoretic mobility shift assay (EMSA) for representative compounds from the Examples above are shown in FIGS. 3A-3D and summarized in Table 1.
Table 1. Stat3 DNA-binding activity in vitro of aryl sulfonamido compounds described herein, including their corresponding referenced names (e.g., H203), as measured by electrophoretic mobility shift assay (EMSA). The inhibition metrics are presented in units of micromolar (μM).

[1] = tested on: Stat3 DNA-binding activity in MDA-MB-231 cells; experiment: EMSA of nuclear extracts from treated human breast cancer cells (intracellular Stat3 signaling); format: cell-based; conditions: 0.5, 1, 2, 3, 4, 5 and 10 μM, 0-72 h
Protocol: Nuclear extract preparation, gel shift assays, and densitometric analysis. […] The ^32P-labeled oligonucleotide probes used were hSIE (high affinity sis-inducible element from the c-fos gene, m67 variant, 5′-[…]) (SEQ ID NO: 1) that binds Stat1 and Stat3 and MGFe (mammary gland factor element from the bovine β-casein gene promoter, 5′-[…]) (SEQ ID NO: 2) for Stat1 and Stat5 binding. Except where indicated, nuclear extracts were pre-incubated with compound for 30 min at room temperature prior to incubation with the radiolabeled probe for 30 min at 30° C. before subjecting to EMSA analysis. Where appropriate, bands corresponding to Stat3:DNA complexes were scanned and quantified for each concentration of compound using ImageJ and plotted as percent of control (DMSO) against concentration of compound, from which the IC50 values were derived.
Aryl sulfonamido azetidine compounds were investigated for their inhibitory effects of the active analogs on intracellular Stat3 signaling. […] Nuclear extracts are prepared and subjected to EMSA analysis for Stat3 DNA-binding activity. […] Stat3 DNA-binding activity in MDA-MB-231 cells, is inhibited by the compounds following treatment as measured periodically up to 72 h.

[2] = tested on: subcutaneous MDA-MB-231 tumor xenografts; experiment: Growth of subcutaneous MDA-MB-231 tumor xenografts; format: in vivo, mouse; conditions: 10 mg/kg every other day, intraperitoneally, vs vehicle control
Protocol: (§1) (5 mice per group). The subjects were administered intraperitoneally.

[3] = Body weight of treated mice in the xenograft study; format: in vivo, mouse; conditions: 10 mg/kg every other day, intraperitoneally, treated vs untreated mice
Protocol: as §1

MDA-MB-231 = experiment: Cell growth by trypan blue exclusion/phase-contrast microscopy; format: cell-based; conditions: Homo sapiens, MDA-MB-231, read-out: IC50, MDA-MB-231 cell growth
Protocol: FIGS. 1A-1N. Show the effects of aryl sulfonamido azetidine compounds on cell viability in vitro relative to control (untreated cells). […] Cells in 6-well plates were treated once with 0.05% DMSO, or at the indicated concentrations (0.5, 1, 2, 3, 4, 5 and 10 μM if not otherwise so indicated) of the test compounds. […] The compound names are correlated with the structures provided in the Examples in Table 1.
Cell proliferation and viability assay. […] Cells in 6-well or 96-well plates were treated with or without compounds for the indicated concentrations and time, and subjected to MTT assay or CyQuant cell proliferation assay (Invitrogen/ThermoFisher Scientific), or harvested and the viable cells were counted by trypan blue exclusion with phase-contrast microscopy.
Constitutive Stat3 activity promotes tumor cell growth and proliferation and survival (Darnell J E (2005) Nat Med. 11:595-6; Bowman T, et al., (2000) Oncogene 19:2474-2488). An aryl sulfonamido azetidine compound, H182, was tested against tumor cells harboring constitutively-active Stat3.

Stat3, sequence (P42227 2-770): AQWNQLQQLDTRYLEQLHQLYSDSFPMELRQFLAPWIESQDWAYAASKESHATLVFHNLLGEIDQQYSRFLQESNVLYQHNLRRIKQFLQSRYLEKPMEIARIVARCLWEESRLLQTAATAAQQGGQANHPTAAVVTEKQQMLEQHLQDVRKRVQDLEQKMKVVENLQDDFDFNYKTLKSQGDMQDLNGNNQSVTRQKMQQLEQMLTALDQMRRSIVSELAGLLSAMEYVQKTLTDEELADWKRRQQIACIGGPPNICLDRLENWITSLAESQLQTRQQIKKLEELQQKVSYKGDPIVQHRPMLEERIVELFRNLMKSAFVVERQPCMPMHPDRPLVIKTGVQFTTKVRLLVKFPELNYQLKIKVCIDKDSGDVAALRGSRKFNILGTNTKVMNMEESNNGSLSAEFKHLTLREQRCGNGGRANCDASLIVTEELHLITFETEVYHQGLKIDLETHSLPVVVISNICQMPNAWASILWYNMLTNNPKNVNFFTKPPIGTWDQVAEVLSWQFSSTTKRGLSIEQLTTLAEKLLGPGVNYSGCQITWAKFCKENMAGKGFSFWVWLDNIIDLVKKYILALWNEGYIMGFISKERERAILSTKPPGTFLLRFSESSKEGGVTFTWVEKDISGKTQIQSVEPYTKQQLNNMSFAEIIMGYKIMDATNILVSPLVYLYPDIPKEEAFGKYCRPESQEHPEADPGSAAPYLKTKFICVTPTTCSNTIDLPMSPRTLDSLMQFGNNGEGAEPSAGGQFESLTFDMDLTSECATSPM

Row | Compound | IC50 (Stat3) [nM] | Stat3 DNA-binding activity in MDA-MB-231 cells [1] | also measured
1 | Cn1ccc2cc(N(Cc3ccc(C4CCCCC4)cn3)C(=O)[C@H]3CCN3S(=O)(=O)c3c(F)c(F)c(F)c(F)c3F)ccc2c1=O [Example 22, (R)—N-((5-cyclohexylpyridin-2-yl)methyl)-N-(2-methyl-1-oxo-1,2-dihydroisoquinolin-6-yl)-1-((perfluorophenyl)sulfonyl)azetidine-2-carboxamide] | 866 ± 85 |  | 
2 | O=C([C@H]1CCN1S(=O)(=O)c1c(F)c(F)c(F)c(F)c1F)N(Cc1ccc(C2CCCCC2)nc1)c1ccc2c(=O)[nH]ncc2c1 [Example H172] |  | inhibited | 
3 | O=C([C@H]1CCN1S(=O)(=O)c1c(F)c(F)c(F)c(F)c1F)N(Cc1ccc(C2CCCCC2)cn1)c1ccc2c(=O)[nH]cnc2c1 [Example H182] |  | inhibited | tumor growth [2]: reduce the tumor growth rate; body weight [3]: maintaining subject body weight; IC50 (MDA-MB-231): < 10000 nM

The next lines start with results.

Row | IC50 (Stat3) [nM] | Compound | Stat3 DNA-binding activity in MDA-MB-231 cells [1] | also measured
4 | 1150 ± 40 | Cn1cnc2cc(N(Cc3ccc(C4CCCCC4)cn3)C(=O)[C@H]3CCN3S(=O)(=O)c3c(F)c(F)c(F)c(F)c3F)ccc2c1=O [Example 23, (R)—N-((5-cyclohexylpyridin-2-yl)methyl)-N-(3-methyl-4-oxo-3,4-dihydroquinazolin-7-yl)-1-((perfluorophenyl)sulfonyl)azetidine-2-carboxamide] |  | 
5 | 788 ± 39 | O=C([C@H]1CCN1S(=O)(=O)c1c(F)c(F)c(F)c(F)c1F)N(Cc1ccc(C2CCCCC2)cn1)c1ccc2c(=O)[nH]ccc2c1 [Example 25, (R)—N-((5-cyclohexylpyridin-2-yl)methyl)-N-(1-oxo-1,2-dihydroisoquinolin-6-yl)-1-((perfluorophenyl)sulfonyl)azetidine-2-carboxamide] |  | 
